Results as given in BindingDB's records for doi:10.1016/s0014-2999(98)00246-5 (The Royal Danish School of Pharmacy, 1998).

Tests used:
[1] = molecular target: Metabotropic glutamate receptor 5 (Rattus norvegicus, UniProt P31424)
[2] = molecular target: Metabotropic glutamate receptor 1 (Rattus norvegicus, UniProt P23385)
[3] = molecular target: Metabotropic glutamate receptor 4 (Rattus norvegicus, UniProt P31423)
[4] = molecular target: Metabotropic glutamate receptor 2 (Homo sapiens, UniProt Q14416)
Chain of Metabotropic glutamate receptor 2 (Q14416 whole entry): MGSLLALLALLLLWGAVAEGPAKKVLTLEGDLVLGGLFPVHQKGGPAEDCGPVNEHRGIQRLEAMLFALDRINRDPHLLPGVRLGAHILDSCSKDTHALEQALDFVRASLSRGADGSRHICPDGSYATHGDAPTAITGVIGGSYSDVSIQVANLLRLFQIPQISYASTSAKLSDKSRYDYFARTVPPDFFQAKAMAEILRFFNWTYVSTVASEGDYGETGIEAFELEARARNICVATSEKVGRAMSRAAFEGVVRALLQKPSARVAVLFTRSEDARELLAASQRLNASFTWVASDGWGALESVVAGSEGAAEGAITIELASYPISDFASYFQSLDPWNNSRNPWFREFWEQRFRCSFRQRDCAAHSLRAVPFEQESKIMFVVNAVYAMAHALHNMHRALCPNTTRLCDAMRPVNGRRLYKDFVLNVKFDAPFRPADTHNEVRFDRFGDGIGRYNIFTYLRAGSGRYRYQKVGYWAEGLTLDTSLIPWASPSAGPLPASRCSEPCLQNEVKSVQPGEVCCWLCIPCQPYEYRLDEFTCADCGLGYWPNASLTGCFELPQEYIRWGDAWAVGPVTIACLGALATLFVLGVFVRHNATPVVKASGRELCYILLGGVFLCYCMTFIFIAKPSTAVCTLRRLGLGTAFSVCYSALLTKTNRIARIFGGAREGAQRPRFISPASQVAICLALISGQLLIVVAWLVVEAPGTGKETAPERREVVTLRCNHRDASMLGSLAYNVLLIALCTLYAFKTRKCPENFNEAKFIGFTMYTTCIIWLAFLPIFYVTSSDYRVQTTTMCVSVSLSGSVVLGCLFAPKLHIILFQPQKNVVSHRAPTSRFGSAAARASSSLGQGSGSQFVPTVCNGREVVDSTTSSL

Chain of Metabotropic glutamate receptor 1 (P23385 whole entry): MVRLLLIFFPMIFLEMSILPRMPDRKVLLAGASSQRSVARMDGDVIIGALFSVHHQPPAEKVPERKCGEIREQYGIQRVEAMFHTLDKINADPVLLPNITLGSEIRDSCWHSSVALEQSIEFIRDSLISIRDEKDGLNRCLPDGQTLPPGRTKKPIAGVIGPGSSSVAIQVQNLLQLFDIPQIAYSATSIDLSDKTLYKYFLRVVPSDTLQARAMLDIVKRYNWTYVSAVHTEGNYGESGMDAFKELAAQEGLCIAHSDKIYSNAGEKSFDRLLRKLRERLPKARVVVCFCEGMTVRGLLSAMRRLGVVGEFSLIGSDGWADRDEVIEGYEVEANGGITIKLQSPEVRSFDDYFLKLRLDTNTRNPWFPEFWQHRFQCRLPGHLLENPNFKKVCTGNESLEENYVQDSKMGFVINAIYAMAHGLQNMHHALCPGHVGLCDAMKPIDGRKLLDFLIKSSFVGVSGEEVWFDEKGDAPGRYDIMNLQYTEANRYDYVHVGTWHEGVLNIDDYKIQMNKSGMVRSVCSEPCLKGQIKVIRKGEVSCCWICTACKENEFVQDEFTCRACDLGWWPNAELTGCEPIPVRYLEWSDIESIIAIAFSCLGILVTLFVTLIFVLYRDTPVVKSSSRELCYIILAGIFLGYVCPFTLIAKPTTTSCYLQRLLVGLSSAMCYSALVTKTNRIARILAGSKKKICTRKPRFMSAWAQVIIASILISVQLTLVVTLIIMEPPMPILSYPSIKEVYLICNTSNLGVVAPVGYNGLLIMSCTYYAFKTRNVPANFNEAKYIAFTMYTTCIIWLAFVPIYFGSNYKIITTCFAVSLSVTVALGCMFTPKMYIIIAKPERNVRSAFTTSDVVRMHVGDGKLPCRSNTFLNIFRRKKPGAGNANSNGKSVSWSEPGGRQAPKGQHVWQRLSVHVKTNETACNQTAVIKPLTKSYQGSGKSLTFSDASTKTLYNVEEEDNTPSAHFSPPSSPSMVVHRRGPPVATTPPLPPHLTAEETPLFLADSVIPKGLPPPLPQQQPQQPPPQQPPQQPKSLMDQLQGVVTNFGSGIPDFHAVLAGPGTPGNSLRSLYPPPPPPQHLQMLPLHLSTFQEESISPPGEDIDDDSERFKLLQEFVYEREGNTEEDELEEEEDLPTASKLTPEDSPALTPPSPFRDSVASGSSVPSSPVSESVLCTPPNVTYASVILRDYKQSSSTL
Chain of Metabotropic glutamate receptor 4 (P31423 whole entry): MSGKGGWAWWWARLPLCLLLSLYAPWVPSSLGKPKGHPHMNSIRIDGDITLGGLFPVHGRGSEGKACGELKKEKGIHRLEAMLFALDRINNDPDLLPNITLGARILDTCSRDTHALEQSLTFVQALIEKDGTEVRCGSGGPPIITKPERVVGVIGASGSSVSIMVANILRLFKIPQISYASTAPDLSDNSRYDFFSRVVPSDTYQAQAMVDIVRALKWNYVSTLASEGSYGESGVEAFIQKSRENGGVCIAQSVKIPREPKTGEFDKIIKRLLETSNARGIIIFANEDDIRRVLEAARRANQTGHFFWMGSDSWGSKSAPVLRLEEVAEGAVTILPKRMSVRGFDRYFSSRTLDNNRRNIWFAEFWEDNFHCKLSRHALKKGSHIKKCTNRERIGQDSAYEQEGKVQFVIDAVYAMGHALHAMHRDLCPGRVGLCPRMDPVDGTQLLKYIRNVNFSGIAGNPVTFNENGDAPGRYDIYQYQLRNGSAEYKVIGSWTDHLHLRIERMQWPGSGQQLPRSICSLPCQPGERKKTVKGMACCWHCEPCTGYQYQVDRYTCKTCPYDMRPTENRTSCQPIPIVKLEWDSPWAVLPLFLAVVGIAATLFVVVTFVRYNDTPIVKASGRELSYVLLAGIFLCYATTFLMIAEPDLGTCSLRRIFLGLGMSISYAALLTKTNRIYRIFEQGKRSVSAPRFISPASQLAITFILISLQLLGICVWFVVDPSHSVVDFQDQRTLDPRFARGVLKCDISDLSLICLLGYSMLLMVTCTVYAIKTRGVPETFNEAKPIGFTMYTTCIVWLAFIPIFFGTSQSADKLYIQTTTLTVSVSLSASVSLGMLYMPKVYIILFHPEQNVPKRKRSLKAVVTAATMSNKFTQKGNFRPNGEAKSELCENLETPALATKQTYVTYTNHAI
Chain of Metabotropic glutamate receptor 5 (P31424 whole entry): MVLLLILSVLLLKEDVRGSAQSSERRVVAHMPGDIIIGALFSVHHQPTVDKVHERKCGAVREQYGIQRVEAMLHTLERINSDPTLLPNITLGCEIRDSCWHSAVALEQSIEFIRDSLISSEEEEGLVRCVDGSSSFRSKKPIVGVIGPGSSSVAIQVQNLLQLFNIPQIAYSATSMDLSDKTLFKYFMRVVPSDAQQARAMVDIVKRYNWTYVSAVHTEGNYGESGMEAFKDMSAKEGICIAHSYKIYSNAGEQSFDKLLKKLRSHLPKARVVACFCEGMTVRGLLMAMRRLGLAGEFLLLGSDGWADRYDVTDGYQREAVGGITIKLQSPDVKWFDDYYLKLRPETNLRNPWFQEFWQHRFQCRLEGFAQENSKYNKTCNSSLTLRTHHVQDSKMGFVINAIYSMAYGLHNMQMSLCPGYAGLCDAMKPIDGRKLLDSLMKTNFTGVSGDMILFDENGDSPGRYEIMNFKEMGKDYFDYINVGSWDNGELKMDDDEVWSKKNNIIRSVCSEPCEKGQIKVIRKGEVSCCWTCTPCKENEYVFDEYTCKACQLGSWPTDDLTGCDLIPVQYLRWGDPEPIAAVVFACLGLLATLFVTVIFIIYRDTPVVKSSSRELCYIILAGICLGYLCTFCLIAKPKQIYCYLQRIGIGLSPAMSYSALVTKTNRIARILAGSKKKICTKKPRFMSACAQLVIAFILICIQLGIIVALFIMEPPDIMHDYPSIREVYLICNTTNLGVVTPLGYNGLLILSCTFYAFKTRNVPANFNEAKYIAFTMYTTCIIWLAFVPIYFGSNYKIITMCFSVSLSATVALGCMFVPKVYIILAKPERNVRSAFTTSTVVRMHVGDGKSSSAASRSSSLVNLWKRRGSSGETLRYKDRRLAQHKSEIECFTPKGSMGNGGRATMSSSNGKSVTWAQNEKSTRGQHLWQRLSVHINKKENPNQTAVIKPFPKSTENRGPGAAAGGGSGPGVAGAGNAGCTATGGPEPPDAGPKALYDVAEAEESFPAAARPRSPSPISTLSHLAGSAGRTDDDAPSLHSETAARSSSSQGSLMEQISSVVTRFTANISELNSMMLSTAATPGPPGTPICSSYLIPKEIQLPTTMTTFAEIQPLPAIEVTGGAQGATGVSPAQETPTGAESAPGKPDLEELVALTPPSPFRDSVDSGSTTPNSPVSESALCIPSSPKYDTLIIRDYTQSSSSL

Compound	Ki [1]	Ki [2]	Ki [3]	Ki [4]
N[C@H](C(=O)O)c1ccc(C(=O)O)cc1 [4-((S)-Amino-carboxy-methyl)-benzoic acid]	> 10 µM	> 10 µM	–	–
Cc1c(C[C@H](N)C(=O)O)o[nH]c1=O [(2S)-2-amino-3-(3-hydroxy-4-methyl-1,2-oxazol-5-yl)propanoic acid]	> 10 µM	–	> 10 µM	> 10 µM
Cc1c(C[C@@H](N)C(=O)O)o[nH]c1=O [(S)-4-Methylhomoibotenic acid]	> 10 µM	> 10 µM	> 10 µM	> 10 µM
NC(C(=O)O)c1cc(=O)[nH]o1 (stereo unspecified) [Amino-(3-hydroxy-isoxazol-5-yl)-acetic acid(Ibotenic acid)]	> 10 µM	> 10 µM	> 10 µM	–
N[C@@H](Cc1o[nH]c(=O)c1Br)C(=O)O [NSC_2733518]	> 10 µM	> 10 µM	> 10 µM	> 10 µM
N[C@H](Cc1onc(O)c1Br)C(=O)O [NSC_2733518]	> 10 µM	> 10 µM	> 10 µM	> 10 µM

Now from value to compound:

Ki [1]	Ki [2]	Ki [3]	Ki [4]	Compound
> 10 µM	> 10 µM	> 10 µM	> 10 µM	CCCCc1c(C[C@H](N)C(=O)O)o[nH]c1=O [(R)-Bu-HIBO]
> 10 µM	> 10 µM	> 10 µM	> 10 µM	N[C@H](CCCC(=O)O)C(=O)O [CAS_542-32-5]
> 10 µM	> 10 µM	> 10 µM	> 10 µM	CCCCc1c(O)noc1C[C@@H](N)C(=O)O [CAS_77006-30-5]
> 10 µM	> 10 µM	> 10 µM	> 10 µM	N[C@@H](Cc1cc(=O)[nH]o1)C(=O)O [CAS_194385]
> 10 µM	> 10 µM	> 10 µM	> 10 µM	N[C@H](Cc1cc(=O)[nH]o1)C(=O)O [CAS_194385]
–	–	> 10 µM	–	N[C@@H](CCC(=O)O)C(=O)O [L-Glutamic acid]
